Experimental data taken from US8940909B2, “Indicator platform” (Biosynth AG, priority 2009, dated 2015).

How the values were obtained:
Experiment in all cases: IO staining of colonies of beta-D-galactosidase positive/negative bacteria (Table IVb)
Format in all cases: cell-based
Salmonella illa 73 = conditions: Salmonella illa strain 73, b-gal +; 24 h on Nutrient Agar, 150 mg/l indicator, 100 mg/l IPTG
[1] = test system: Pseudomonas aeruginosa 168; conditions: Pseudomonas aeruginosa strain 168, b-gal −, 24 h on Nutrient Agar, 150 mg/l indicator, 100 mg/l IPTG; as to C: Color of colonies: key: −: absent; +/−: weak; +: strong; ++: very strong; as to G: Growth of colonies: key: −: absent; +/−: weak; +: strong; ++: very strong
[2] = test system: Enterobacter aerogenes 242; conditions: Enterobacter aerogenes strain 242, b-gal +; 24 h on Nutrient Agar, 150 mg/l indicator, 100 mg/l IPTG; as to C: Color of colonies: key: −: absent; +/−: weak; +: strong; ++: very strong; as to G: Growth of colonies: key: −: absent; +/−: weak; +: strong; ++: very strong
Shigella sonnei 133 = conditions: Shigella sonnei strain 133, b-gal +/−; 24 h on Nutrient Agar, 150 mg/l indicator, 100 mg/l IPTG
[3] = test system: Streptococcus agalactiae 195; conditions: Streptococcus agalactiae strain 195, b-gal −; 24 h on Nutrient Agar, 150 mg/l indicator, 100 mg/l IPTG; as to C: Color of colonies: key: −: absent; +/−: weak; +: strong; ++: very strong; as to F: Fluorescence of colonies: key: −: absent; +/−: weak; +: strong; ++: very strong
Shigella boydii 135 = conditions: Shigella boydii strain 135, b-gal −; 24 h on Nutrient Agar, 150 mg/l indicator, 100 mg/l IPTG
Escherichia coli 270 = conditions: Escherichia coli strain 270, b-gal +; 24 h on Nutrient Agar, 150 mg/l indicator, 100 mg/l IPTG
[4] = test system: Escherichia coli (O157:H7) 60; conditions: Escherichia coli (O157:H7) strain 60, b-gal +; 24 h on Nutrient Agar, 150 mg/l indicator, 100 mg/l IPTG
[5] = test system: Staphylococcus saprophyticus 273; conditions: Staphylococcus saprophyticus strain 273, b-gal +; 24 h on Nutrient Agar, 150 mg/l indicator, 100 mg/l IPTG; as to G: Growth of colonies: key: −: absent; +/−: weak; +: strong; ++: very strong
[6] = test system: Yersinia enterocolitica 175; conditions: Yersinia enterocolitica strain 175, b-gal +/−; 24 h on Nutrient Agar, 150 mg/l indicator, 100 mg/l IPTG; as to G: Growth of colonies: key: −: absent; +/−: weak; +: strong; ++: very strong
Aeromonas hydrophila 292 = conditions: Aeromonas hydrophila strain 292, b-gal +; 24 h on Nutrient Agar, 150 mg/l indicator, 100 mg/l IPTG
[7] = test system: Shigella dysenteriae Serovar 1 131; conditions: Shigella dysenteriae Serovar 1 strain 131, b-gal +/−; 24 h on Nutrient Agar, 150 mg/l indicator, 100 mg/l IPTG
[8] = test system: Staphylococcus intermedius 31; conditions: Staphylococcus intermedius strain 31, b-gal +; 24 h on Nutrient Agar, 150 mg/l indicator, 100 mg/l IPTG
Salmonella bongori 81 = conditions: Salmonella bongori strain 81, b-gal +; 24 h on Nutrient Agar, 150 mg/l indicator, 100 mg/l IPTG
Serratia marcescens 40 = conditions: Serratia marcescens strain 40, b-gal +; 24 h on Nutrient Agar, 150 mg/l indicator, 100 mg/l IPTG
[9] = test system: Salmonella enteritidis 43; conditions: Salmonella enteritidis strain 43, b-gal −; 24 h on Nutrient Agar, 150 mg/l indicator, 100 mg/l IPTG; also: key: −: absent; +/−: weak; +: strong; ++: very strong
Citrobacter freundii 181 = conditions: Citrobacter freundii strain 181, b-gal +; 24 h on Nutrient Agar, 150 mg/l indicator, 100 mg/l IPTG
[10] = test system: Klebsiella pneumoniae 164; conditions: Klebsiella pneumoniae strain 164, b-gal +; 24 h on Nutrient Agar, 150 mg/l indicator, 100 mg/l IPTG; as to C: Color of colonies: key: −: absent; +/−: weak; +: strong; ++: very strong; as to G: Growth of colonies: key: −: absent; +/−: weak; +: strong; ++: very strong
Enterobacter cloacae 245 = conditions: Enterobacter cloacae strain 245, b-gal +; 24 h on Nutrient Agar, 150 mg/l indicator, 100 mg/l IPTG
Escherichia coli 61 = conditions: Escherichia coli strain 61, b-gal +; 24 h on Nutrient Agar, 150 mg/l indicator, 100 mg/l IPTG
Bacillus subtilis 65 = conditions: Bacillus subtilis strain 65, b-gal −; 24 h on Nutrient Agar, 150 mg/l indicator, 100 mg/l IPTG
[11] = test system: Listeria monocytogenes (4b) 290; conditions: Listeria monocytogenes (4b) strain 290, b-gal −; 24 h on Nutrient Agar, 150 mg/l indicator, 100 mg/l IPTG; as to C: Color of colonies: key: −: absent; +/−: weak; +: strong; ++: very strong; as to F: Fluorescence of colonies: key: −: absent; +/−: weak; +: strong; ++: very strong
Staphylococcus aureus 2 = conditions: Staphylococcus aureus strain 2, b-gal −, 24 h on Nutrient Agar, 150 mg/l indicator, 100 mg/l IPTG

COc1ccc(C(=O)c2ccccc2-n2cc(O[C@@H]3O[C@H](CO)[C@H](O)[C@H](O)[C@H]3O)c3ccccc32)c(OC)c1 [Indicator I25a, 1-[2-(2,4-Dimethoxybenzoyl)phenyl]-1H-indol-3-yl-beta-D-galactopyranoside]
C: Color of colonies (Salmonella illa 73): − | F: Fluorescence of colonies (Salmonella illa 73): − | G: Growth of colonies (Salmonella illa 73): + | C: Color of colonies [1]: − | G: Growth of colonies [1]: + | F: Fluorescence of colonies ([1]; footnote 1: blue autofluorescence): +^1 | C: Color of colonies [2]: + | F: Fluorescence of colonies [2]: + | G: Growth of colonies [2]: + | C: Color of colonies (Shigella sonnei 133): + | F: Fluorescence of colonies (Shigella sonnei 133): ++ | G: Growth of colonies (Shigella sonnei 133): + | C: Color of colonies [3]: − | F: Fluorescence of colonies [3]: − | G: Growth of colonies [3]: +/− | C: Color of colonies (Shigella boydii 135): − | F: Fluorescence of colonies (Shigella boydii 135): − | G: Growth of colonies (Shigella boydii 135): + | C: Color of colonies (Escherichia coli 270): ++ | F: Fluorescence of colonies (Escherichia coli 270): ++ | G: Growth of colonies (Escherichia coli 270): + | C: Color of colonies [4]: ++ | F: Fluorescence of colonies [4]: ++ | G: Growth of colonies [4]: + | C: Color of colonies [5]: +/− | F: Fluorescence of colonies [5]: +/− | G: Growth of colonies [5]: + | C: Color of colonies [6]: − | F: Fluorescence of colonies [6]: − | G: Growth of colonies [6]: + | C: Color of colonies (Aeromonas hydrophila 292): + | F: Fluorescence of colonies (Aeromonas hydrophila 292): +/− | G: Growth of colonies (Aeromonas hydrophila 292): + | C: Color of colonies [7]: − | F: Fluorescence of colonies [7]: − | G: Growth of colonies [7]: + | C: Color of colonies [8]: +/− | F: Fluorescence of colonies [8]: +/− | G: Growth of colonies [8]: + | C: Color of colonies (Salmonella bongori 81): +/− | F: Fluorescence of colonies (Salmonella bongori 81): +/− | G: Growth of colonies (Salmonella bongori 81): + | C: Color of colonies (Serratia marcescens 40): + | F: Fluorescence of colonies (Serratia marcescens 40): +/− | G: Growth of colonies (Serratia marcescens 40): + | C: Color of colonies [9]: − | F: Fluorescence of colonies [9]: − | G: Growth of colonies [9]: + | C: Color of colonies (Citrobacter freundii 181): + | F: Fluorescence of colonies (Citrobacter freundii 181): + | G: Growth of colonies (Citrobacter freundii 181): + | C: Color of colonies [10]: + | F: Fluorescence of colonies [10]: + | G: Growth of colonies [10]: + | C: Color of colonies (Enterobacter cloacae 245): + | F: Fluorescence of colonies (Enterobacter cloacae 245): ++ | G: Growth of colonies (Enterobacter cloacae 245): + | C: Color of colonies (Escherichia coli 61): ++ | F: Fluorescence of colonies (Escherichia coli 61): ++ | G: Growth of colonies (Escherichia coli 61): + | C: Color of colonies (Bacillus subtilis 65): − | F: Fluorescence of colonies (Bacillus subtilis 65): − | G: Growth of colonies (Bacillus subtilis 65): + | C: Color of colonies [11]: − | F: Fluorescence of colonies [11]: − | G: Growth of colonies [11]: +/− | F: Fluorescence of colonies (Staphylococcus aureus 2): − | G: Growth of colonies (Staphylococcus aureus 2): + | C: Color of colonies (Staphylococcus aureus 2; footnote 2: S. aureus natural color): +/−^2
